Experimental data published in PubChem BioAssay (NCI).
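Assay format: 96-well plates, 48-hour exposure. Abbreviation: GI50, concentration required for 50% inhibition of growth. TGI denotes the concentration required for complete inhibition of growth.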

test system: CAKI-1 renal; assay: NCI-60 cell line screen, 48 h

Point of comparison: COc1cc([C@H]2Oc3cc(O)c4c(=O)cc(-c5ccccc5)oc4c3O[C@@H]2CO)ccc1O, TGI 79.1 µM. Against it:
- N#Cc1nc(Nc2cccc3ccccc23)sc1N — higher, > 100 µM

test system: SF-268 CNS; assay: NCI-60 cell line screen, 48 h

Point of comparison: Cc1ccc(NC(=O)C(=O)C(C(=O)c2ccc3ccccc3c2)C2OC(=O)c3ccccc32)cc1C (stereo unspecified), TGI 52.8 µM. Against it:
- O=S1(=O)C[C@H](O)[C@H](O)CS1 — higher, > 100 µM
- N#Cc1nc(Nc2cccc3ccccc23)sc1N — higher, > 100 µM
- COc1cc([C@H]2Oc3cc(O)c4c(=O)cc(-c5ccccc5)oc4c3O[C@@H]2CO)ccc1O — higher, > 100 µM
- CCN(CC)CC1CCCCCCCCCCC1=O (stereo unspecified) — higher, > 100 µM
- O=C1C(Cl)N(c2ccc(Cl)cc2)C1c1c[nH]c2ccccc12 (stereo unspecified) — higher, > 100 µM

test system: SF-295 CNS; assay: NCI-60 cell line screen, 48 h

For CCC[CH2][Sn]1([CH2]CCC)[O]N=C(c2ccccc2)C(c2ccccc2)[O]1 (stereo unspecified), the GI50 was 1730 nM.

Point of comparison: O=C1C(Cl)N(c2ccc(Cl)cc2)C1c1c[nH]c2ccccc12 (stereo unspecified), TGI 31.5 µM. Against it:
- CCC[CH2][Sn]1([CH2]CCC)[O]N=C(c2ccccc2)C(c2ccccc2)[O]1 (stereo unspecified) — 9.2-fold lower, 3.41 µM
- O=S1(=O)C[C@H](O)[C@H](O)CS1 — higher, > 100 µM
- N#Cc1nc(Nc2cccc3ccccc23)sc1N — higher, > 100 µM
- CCN(CC)CC1CCCCCCCCCCC1=O (stereo unspecified) — higher, > 100 µM

test system: LOX IMVI melanoma; assay: NCI-60 cell line screen, 48 h

Point of comparison: N#Cc1nc(Nc2cccc3ccccc23)sc1N, TGI 33.4 µM. Against it:
- Cc1ccc(NC(=O)C(=O)C(C(=O)c2ccc3ccccc3c2)C2OC(=O)c3ccccc32)cc1C (stereo unspecified) — within 1.5-fold, 32.8 µM
- CCC[CH2][Sn]1([CH2]CCC)[O]N=C(c2ccccc2)C(c2ccccc2)[O]1 (stereo unspecified) — 12-fold lower, 2.86 µM
- O=S1(=O)C[C@H](O)[C@H](O)CS1 — higher, > 100 µM
- CCN(CC)CC1CCCCCCCCCCC1=O (stereo unspecified) — higher, > 100 µM

In the case of CCC[CH2][Sn]1([CH2]CCC)[O]N=C(c2ccccc2)C(c2ccccc2)[O]1 (stereo unspecified), the GI50 is reported as 1380 nM.

test system: HL-60(TB) leukemia; assay: NCI-60 cell line screen, 48 h

Point of comparison: Cc1ccc(NC(=O)C(=O)C(C(=O)c2ccc3ccccc3c2)C2OC(=O)c3ccccc32)cc1C (stereo unspecified), TGI 44.9 µM. Against it:
- CCC[CH2][Sn]1([CH2]CCC)[O]N=C(c2ccccc2)C(c2ccccc2)[O]1 (stereo unspecified) — 32-fold lower, 1.42 µM
- O=S1(=O)C[C@H](O)[C@H](O)CS1 — higher, > 100 µM
- N#Cc1nc(Nc2cccc3ccccc23)sc1N — higher, > 100 µM
- COc1cc([C@H]2Oc3cc(O)c4c(=O)cc(-c5ccccc5)oc4c3O[C@@H]2CO)ccc1O — higher, > 100 µM
- CCN(CC)CC1CCCCCCCCCCC1=O (stereo unspecified) — higher, > 100 µM
- O=C1C(Cl)N(c2ccc(Cl)cc2)C1c1c[nH]c2ccccc12 (stereo unspecified) — within 1.5-fold, 44.5 µM

Compound CCC[CH2][Sn]1([CH2]CCC)[O]N=C(c2ccccc2)C(c2ccccc2)[O]1 (stereo unspecified) has a GI50 of 263 nM.

test system: DLD-1 colon; assay: NCI-60 cell line screen, 48 h

Point of comparison: CCC[CH2][Sn]1([CH2]CCC)[O]N=C(c2ccccc2)C(c2ccccc2)[O]1 (stereo unspecified), TGI 3.58 µM. Against it:
- Cc1ccc(NC(=O)C(=O)C(C(=O)c2ccc3ccccc3c2)C2OC(=O)c3ccccc32)cc1C (stereo unspecified) — 10-fold higher, 36.7 µM
- O=S1(=O)C[C@H](O)[C@H](O)CS1 — higher, > 100 µM
- N#Cc1nc(Nc2cccc3ccccc23)sc1N — higher, > 100 µM
- COc1cc([C@H]2Oc3cc(O)c4c(=O)cc(-c5ccccc5)oc4c3O[C@@H]2CO)ccc1O — higher, > 100 µM
- CCN(CC)CC1CCCCCCCCCCC1=O (stereo unspecified) — higher, > 100 µM

CCC[CH2][Sn]1([CH2]CCC)[O]N=C(c2ccccc2)C(c2ccccc2)[O]1 (stereo unspecified) gave a GI50 of 1790 nM.

test system: KM12 colon; assay: NCI-60 cell line screen, 48 h

Point of comparison: Cc1ccc(NC(=O)C(=O)C(C(=O)c2ccc3ccccc3c2)C2OC(=O)c3ccccc32)cc1C (stereo unspecified), TGI 47.1 µM. Against it:
- CCC[CH2][Sn]1([CH2]CCC)[O]N=C(c2ccccc2)C(c2ccccc2)[O]1 (stereo unspecified) — 3.3-fold lower, 14.1 µM
- O=S1(=O)C[C@H](O)[C@H](O)CS1 — higher, > 100 µM
- N#Cc1nc(Nc2cccc3ccccc23)sc1N — higher, > 100 µM
- CCN(CC)CC1CCCCCCCCCCC1=O (stereo unspecified) — higher, > 100 µM
- O=C1C(Cl)N(c2ccc(Cl)cc2)C1c1c[nH]c2ccccc12 (stereo unspecified) — higher, > 100 µM

Compound CCC[CH2][Sn]1([CH2]CCC)[O]N=C(c2ccccc2)C(c2ccccc2)[O]1 (stereo unspecified) has a GI50 of 3.49 µM.

test system: OVCAR-5 ovarian; assay: NCI-60 cell line screen, 48 h

Point of comparison: Cc1ccc(NC(=O)C(=O)C(C(=O)c2ccc3ccccc3c2)C2OC(=O)c3ccccc32)cc1C (stereo unspecified), TGI 71.3 µM. Against it:
- CCC[CH2][Sn]1([CH2]CCC)[O]N=C(c2ccccc2)C(c2ccccc2)[O]1 (stereo unspecified) — 7.7-fold lower, 9.31 µM
- O=S1(=O)C[C@H](O)[C@H](O)CS1 — higher, > 100 µM
- N#Cc1nc(Nc2cccc3ccccc23)sc1N — higher, > 100 µM
- CCN(CC)CC1CCCCCCCCCCC1=O (stereo unspecified) — higher, > 100 µM

In the case of CCC[CH2][Sn]1([CH2]CCC)[O]N=C(c2ccccc2)C(c2ccccc2)[O]1 (stereo unspecified), the GI50 is reported as 2840 nM.

test system: SNB-19 CNS; assay: NCI-60 cell line screen, 48 h

Point of comparison: CCC[CH2][Sn]1([CH2]CCC)[O]N=C(c2ccccc2)C(c2ccccc2)[O]1 (stereo unspecified), TGI 5.04 µM. Against it:
- Cc1ccc(NC(=O)C(=O)C(C(=O)c2ccc3ccccc3c2)C2OC(=O)c3ccccc32)cc1C (stereo unspecified) — 4.2-fold higher, 21.3 µM

CCC[CH2][Sn]1([CH2]CCC)[O]N=C(c2ccccc2)C(c2ccccc2)[O]1 (stereo unspecified) gave a GI50 of 2140 nM.
